Assay results reported in patent publication US5665586A, “Protease from Streptomyces fradiae” (Shionogi & Co., Ltd., priority 1992, dated 1997).
Read-outs that look alike come from different tables or passages of the source. One block for each molecule: values may come before it. Where a SMILES comes first, the peptide text is derived from it. The star is where a group is joined. pNA = O=[N+]([O-])c1ccc(N*)cc1; Cbz = O=C(OCc1ccccc1)*; Boc = CC(C)(C)OC(=O)*; CH2Cl = ClC*

Columns and labels:
SFase [1] = target: T1, SFase (Streptomyces fradiae, UniProt Q03424); assay: Effect of inhibitors on SFase (residual activity, substrate Z-Phe-Leu-Glu-pNA); type: biochemical
T1 sequence (Q03424 171-357): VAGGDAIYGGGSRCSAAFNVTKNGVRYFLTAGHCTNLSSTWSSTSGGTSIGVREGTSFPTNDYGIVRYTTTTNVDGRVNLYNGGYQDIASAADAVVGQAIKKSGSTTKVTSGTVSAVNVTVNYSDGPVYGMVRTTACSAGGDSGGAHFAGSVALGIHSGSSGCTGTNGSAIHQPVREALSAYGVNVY

SFase [2] = target: T1, SFase; assay: Substrate specificity of SFase on synthetic pNA substrates (p-nitroaniline release, A410 nm); type: biochemical; conditions: 50 mM Tris-HCl, 2 mM CaCl2, pH 7.5, 25° C.
Description: 1. […] The present enzyme was added thereto to cause a reaction at a temperature of 25° C. By measuring the absorbance (410 nm) of p-nitroaniline released through the enzymatic reaction into the reaction solution, the amount (A410 nm) of p-nitroaniline released per mg each substrate per 1 minute was calculated.

[3] = inhibitor 0.5 mM, preincubation 37° C., 1 hour, enzyme 1.0 μg/ml, 0.2 mM Z-Phe-Leu-Glu-pNA, pH 7.5, 25° C., read-out: Residual Activity (%)
[4] = pH 7.5, read-out: Residual Activity (%)

remaining activity at 500 µM (SFase [1]; [3]): 102%
Structure (SMILES): C[C@H](NC(=O)[C@H](C)NC(=O)[C@H](C)NC(=O)OC(C)(C)C)C(=O)CCl [Boc--Ala--Ala--Ala--CK]

amount (A410 nm) of p-nitroaniline released per mg per 1 minute (SFase [2]; substrate 0.20 mM, DMF 2.0%): 14.3 A 410 nm /mg/min
Structure (SMILES): C[C@H](NC(=O)OC(C)(C)C)C(=O)N[C@@H](C)C(=O)N[C@@H](CC(=O)O)C(=O)Nc1ccc([N+](=O)[O-])cc1 [Boc--Ala--Ala--Asp--pNA] (Boc-Ala-Ala-Asp-pNA)

amount (A410 nm) of p-nitroaniline released per mg per 1 minute (SFase [2]; substrate 0.20 mM, DMF 2.0%): 126.2 A 410 nm /mg/min
Structure (SMILES): C[C@H](NC(=O)OC(C)(C)C)C(=O)N[C@@H](C)C(=O)N[C@@H](CCC(=O)O)C(=O)Nc1ccc([N+](=O)[O-])cc1 [Boc--Ala--Ala--Glu--pNA] (Boc-Ala-Ala-Glu-pNA)

inhibition of SFase (in words) (SFase [1]; Table 2): completely inhibited
Structure (SMILES): CC(C)C[C@H](NC(=O)[C@H](Cc1ccccc1)NC(=O)OC(C)(C)C)C(=O)N[C@@H](CCC(=O)O)C(=O)CCl [Boc-Phe-Leu-Glu-chloromethylketone] (Boc-Phe-Leu-Glu-CH2Cl)

amount (A410 nm) of p-nitroaniline released per mg per 1 minute (SFase [2]; substrate 0.50 mM, DMSO 1.0%): 0 A 410 nm /mg/min
Structure (SMILES): N=C(N)NCCC[C@H](NC(=O)c1ccccc1)C(=O)Nc1ccc([N+](=O)[O-])cc1 [Bz--Arg--pNA]

amount (A410 nm) of p-nitroaniline released per mg per 1 minute (SFase [2]; substrate 0.02 mM, DMF 2.0%): 0 A 410 nm /mg/min
Structure (SMILES): O=C(N[C@@H](Cc1ccc(O)cc1)C(=O)Nc1ccc([N+](=O)[O-])cc1)c1ccccc1 [Bz--Tyr--pNA]

Structure (SMILES): O=C(O)CN(CCN(CC(=O)O)CC(=O)O)CC(=O)O [EDTA, ethylenediaminetetraacetic acid]
inhibition of SFase (in words) (SFase [1]): not inhibited
remaining activity at 100 µM (SFase [1]; [4]): 110%
remaining activity at 1000 µM (SFase [1]; [4]): 113%
remaining activity at 10000 µM (SFase [1]; [4]): 126%

amount (A410 nm) of p-nitroaniline released per mg per 1 minute (SFase [2]; substrate 2.00 mM, no solvent): 0 A 410 nm /mg/min
Structure (SMILES): CC(C)C[C@H](N)C(=O)Nc1ccc([N+](=O)[O-])cc1 [Leu--pNA]

inhibition of SFase (in words) (SFase [1]; Table 2): not inhibited
remaining activity at 100 µM (SFase [1]; inhibitor 0.1 mM, preincubation 37° C., 1 hour, enzyme 1.0 μg/ml, 0.2 mM Z-Phe-Leu-Glu-pNA, pH 7.5, 25° C., read-out: Residual Activity (%)): 106%
remaining activity at 1000 µM (SFase [1]; inhibitor 1.0 mM, preincubation 37° C., 1 hour, enzyme 1.0 μg/ml, 0.2 mM Z-Phe-Leu-Glu-pNA, pH 7.5, 25° C., read-out: Residual Activity (%)): 108%
remaining activity at 10000 µM (SFase [1]; inhibitor 10.0 mM, preincubation 37° C., 1 hour, enzyme 1.0 μg/ml, 0.2 mM Z-Phe-Leu-Glu-pNA, pH 7.5, 25° C., read-out: Residual Activity (%)): 104%
Structure (SMILES): c1cnc2c(c1)ccc1cccnc12 [OP, o-phenanthroline]

amount (A410 nm) of p-nitroaniline released per mg per 1 minute (SFase [2]; substrate 0.20 mM, no solvent): 0 A 410 nm /mg/min
Structure (SMILES): C[C@H](NC(=O)CCC(=O)O)C(=O)N[C@@H](C)C(=O)N[C@@H](C)C(=O)Nc1ccc([N+](=O)[O-])cc1 [Suc--Ala--Ala--Ala--pNA]

Structure (SMILES): Cc1ccc(S(=O)(=O)N[C@@H](CCCCN)C(=O)CCl)cc1 [TLCK, Tosyl-Lys-chloromethylketone]
inhibition of SFase (in words) (SFase [1]): inhibited by neither
remaining activity at 500 µM (SFase [1]; [4]): 112%

inhibition of SFase (in words) (SFase [1]; Table 2): inhibited by neither
remaining activity at 500 µM (SFase [1]; [3]): 101%
Structure (SMILES): Cc1ccc(S(=O)(=O)N[C@@H](Cc2ccccc2)C(=O)CCl)cc1 [TPCK, Tosyl-Phe-chloromethylketone]

amount (A410 nm) of p-nitroaniline released per mg per 1 minute (SFase [2]; substrate 0.125 mM, DMF 5.0%): 0 A 410 nm /mg/min
Structure (SMILES): CC(C)C[C@H](NC(=O)[C@H](C)NC(=O)[C@H](C)NC(=O)OCc1ccccc1)C(=O)Nc1ccc([N+](=O)[O-])cc1 [Z--Ala--Ala--Leu--pNA] (Cbz-Ala-Ala-Leu-pNA)

amount (A410 nm) of p-nitroaniline released per mg per 1 minute (SFase [2]; substrate 0.20 mM, DMF 2.0%): 0 A 410 nm /mg/min
Structure (SMILES): O=C(CNC(=O)OCc1ccccc1)N[C@@H](CO)C(=O)Nc1ccc([N+](=O)[O-])cc1 [Z--Gly--Ser--pNA] (Cbz-Gly-Ser-pNA)

remaining activity at 500 µM (SFase [1]; [3]): 0%
Structure (SMILES): CC(C)C[C@H](NC(=O)[C@H](Cc1ccccc1)NC(=O)OCc1ccccc1)C(=O)N[C@@H](CCC(=O)O)C(=O)CCl [Z--Phe--Leu--Glu--CK] (Cbz-Phe-Leu-Glu-CH2Cl)

amount (A410 nm) of p-nitroaniline released per mg per 1 minute (SFase [2]; substrate 0.20 mM, DMF 0.2%): 319.1 A 410 nm /mg/min
Structure (SMILES): CC(C)C[C@H](NC(=O)[C@H](Cc1ccccc1)NC(=O)OCc1ccccc1)C(=O)N[C@@H](CCC(=O)O)C(=O)Nc1ccc([N+](=O)[O-])cc1 [Z--Phe--Leu--Glu--pNA, Z-Phe-Leu-Glu-pNA] (Cbz-Phe-Leu-Glu-pNA)

amount (A410 nm) of p-nitroaniline released per mg per 1 minute (SFase [2]; substrate 0.20 mM, DMF 2.0%): 0 A 410 nm /mg/min
Structure (SMILES): O=C(N[C@@H](Cc1c[nH]c2ccccc12)C(=O)Nc1ccc([N+](=O)[O-])cc1)OCc1ccccc1 [Z--Trp--pNA]
